According to patent US20230183237A1, “COMPETITIVE AND NONCOMPETITIVE INHIBITORS OF THE MUSCARINIC ACETYLCHOLINE RECEPTOR M5” (Vanderbilt University, priority 2020, published 2023):
Like-named read-outs stand apart in the source and are kept apart here.

Target: T1, hM5 (Homo sapiens, UniProt P08912)
T1 construct: expressed in transfected cells
T1 sequence (P08912 1-532): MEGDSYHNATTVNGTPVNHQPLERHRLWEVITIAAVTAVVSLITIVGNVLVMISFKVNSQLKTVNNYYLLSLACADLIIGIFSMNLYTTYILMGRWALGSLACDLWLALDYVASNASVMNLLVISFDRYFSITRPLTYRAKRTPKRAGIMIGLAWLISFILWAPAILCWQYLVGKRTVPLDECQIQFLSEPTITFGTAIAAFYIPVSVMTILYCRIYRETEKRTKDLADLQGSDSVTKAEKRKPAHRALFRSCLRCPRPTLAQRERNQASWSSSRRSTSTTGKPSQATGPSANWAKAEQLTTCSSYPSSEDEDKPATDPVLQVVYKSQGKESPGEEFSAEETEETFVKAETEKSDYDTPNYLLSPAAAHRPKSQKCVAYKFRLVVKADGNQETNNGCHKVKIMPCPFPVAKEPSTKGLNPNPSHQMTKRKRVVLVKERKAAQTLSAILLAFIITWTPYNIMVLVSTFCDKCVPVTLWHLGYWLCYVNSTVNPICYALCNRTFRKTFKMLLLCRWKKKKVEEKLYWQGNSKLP
Assay: Calcium mobilization concentration-response (IC50 vs EC80 acetylcholine), CHO hM5
Assay type: cell-based
Conditions: CELL LINE hM5, read-out: IC50
How it was run: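 CHO cells stably expressing hM5, dye-loaded, in HBSS/20 mM HEPES/2.5 mM probenecid, pH 7.4. Compounds were pre-incubated 140 s before an EC80 acetylcholine challenge, with calcium flux read kinetically.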

[1] = calcium mobilization, EC80 acetylcholine addition

Row | Structure (SMILES) | IC50 [1] | IC50 (vs EC80 acetylcholine)
1 | Cc1cc2ncnn2cc1C1CCN(S(=O)(=O)c2c(Cl)nc3sccn23)CC1 [Compound 324, 6-chloro-5-((4-(7-methyl-[1,2,4]triazolo[1,5-a]pyridin-6-yl)piperidin-1-yl)sulfonyl)imidazo[2,1-b]thiazole] | 0.013 µM | 
2 | Cc1nc2cc(C)c(C3CCN(S(=O)(=O)c4cnn(C)c4C)CC3)cn2n1 [Compound 200, 6-(1-((1,5-dimethyl-1H-pyrazol-4-yl)sulfonyl)piperidin-4-yl)-2,7-dimethyl-[1,2,4]triazolo[1,5-a]pyridine] | 0.899 µM | 
3 | O=S(=O)(c1ccc2ncsc2c1)N1CCC(c2cc(-c3ccco3)n[nH]2)CC1 [Compound 6, 6-((4-(3-(furan-2-yl)-1H-pyrazol-5-yl)piperidin-1-yl)sulfonyl)benzo[d]thiazole] | > 10 µM | 
4 | Cc1cc2ncnn2cc1C1CCN(S(=O)(=O)c2cnn3c2CCC3)C(C)C1 (centres unmarked) [Compound 363, 6-(1-((5,6-dihydro-4H-pyrrolo[1,2-b]pyrazol-3-yl)sulfonyl)-2-methylpiperidin-4-yl)-7-methyl-[1,2,4]triazolo[1,5-a]pyridine] | 0.618 µM | 
5 | Cc1cc2ncnn2nc1C1CCN(S(=O)(=O)c2ccc3ncsc3c2)CC1 [Compound 185, 6-((4-(7-methyl-[1,2,4]triazolo[1,5-b]pyridazin-6-yl)piperidin-1-yl)sulfonyl)benzo[d]thiazole] | > 10 µM | 
6 | O=S(=O)(c1c(Cl)nc2sccn12)N1CCC(c2cn3ncnc3cc2F)CC1 [Compound 328, 6-chloro-5-((4-(7-fluoro-[1,2,4]triazolo[1,5-a]pyridin-6-yl)piperidin-1-yl)sulfonyl)imidazo[2,1-b]thiazole] | 0.327 µM | 
7 | CO[C@@H]1CN(S(=O)(=O)c2cnn(C)c2Cl)CC[C@H]1c1cn2ncnc2cc1C (single isomer, unassigned) [Compound 459] |  | 0.268 µM
8 | Cc1cc2nccnc2cc1C1CCN(S(=O)(=O)c2cnn(C)c2Cl)CC1 [Compound 424, 6-(1-((5-chloro-1-methyl-1H-pyrazol-4-yl)sulfonyl)piperidin-4-yl)-7-methylquinoxaline] |  | 0.055 µM
9 | Cc1cc2nccn2nc1N1CCN(S(=O)(=O)c2cnn3c2CCC3)CC1 [Compound 435, 6-(4-((5,6-dihydro-4H-pyrrolo[1,2-b]pyrazol-3-yl)sulfonyl)piperazin-1-yl)-7-methylimidazo[1,2-b]pyridazine] |  | 0.022 µM
10 | O=S(=O)(c1ccc2c(c1)CCO2)N1CCC(c2cn3ccccc3n2)CC1 [Compound 10, 2-(1-((2,3-dihydrobenzofuran-5-yl)sulfonyl)piperidin-4-yl)imidazo[1,2-a]pyridine] | 2.3 µM | 
11 | CN1CCOc2cc(C3=CCN(S(=O)(=O)c4cnn(C)c4Cl)CC3)c(Cl)cc21 [Compound 377, 6-chloro-7-(1-((5-chloro-1-methyl-1H-pyrazol-4-yl)sulfonyl)-1,2,3,6-tetrahydropyridin-4-yl)-4-methyl-3,4-dihydro-2H-benzo[b][1,4]oxazine] | 1.43 µM | 
12 | O=S(=O)(c1ccc2ncsc2c1)N1CCC(c2cn3ccccc3n2)CC1 [Compound 9, 6-((4-(imidazo[1,2-a]pyridin-2-yl)piperidin-1-yl)sulfonyl)benzo[d]thiazole] | > 10 µM | 
13 | Cc1cc2ncnn2nc1C1CCN(S(=O)(=O)c2c(C)nn(C)c2Cl)CC1 [Compound 179, 6-(1-((5-chloro-1,3-dimethyl-1H-pyrazol-4-yl)sulfonyl)piperidin-4-yl)-7-methyl-[1,2,4]triazolo[1,5-b]pyridazine] | 0.066 µM | 
14 | Cc1c(C2CCN(S(=O)(=O)c3cnn4c3CCCC4)CC2)cn2ncnc2c1F [Compound 305, 8-fluoro-7-methyl-6-(1-((4,5,6,7-tetrahydropyrazolo[1,5-a]pyridin-3-yl)sulfonyl)piperidin-4-yl)-[1,2,4]triazolo[1,5-a]pyridine] | 0.012 µM | 
15 | Cc1ncc(S(=O)(=O)N2CCC(F)(c3cn4ncnc4cc3C)CC2)s1 [Compound 245, 5-((4-fluoro-4-(7-methyl-[1,2,4]triazolo[1,5-a]pyridin-6-yl)piperidin-1-yl)sulfonyl)-2-methylthiazole] | > 10 µM | 

Further lines, results first:

Row | IC50 [1] | IC50 (vs EC80 acetylcholine) | Structure (SMILES)
16 | > 10 µM |  | COc1cc2ncnn2cc1C1CCN(S(=O)(=O)c2cn(C)nc2C)CC1 [Compound 83, 6-(1-((1,3-dimethyl-1H-pyrazol-4-yl)sulfonyl)piperidin-4-yl)-7-methoxy-[1,2,4]triazolo[1,5-a]pyridine]
17 |  | 0.031 µM | Cc1nnc(S(=O)(=O)N2CCC(c3cn4ncnc4cc3C)CC2)s1 [Compound 539, 2-methyl-5-((4-(7-methyl-[1,2,4]triazolo[1,5-a]pyridin-6-yl)piperidin-1-yl)sulfonyl)-1,3,4-thiadiazole]
18 |  | > 10 µM | CC(=O)NCc1c(S(=O)(=O)N2CCC(c3cn4ncnc4cc3C)CC2)cnn1C [Compound 543, N-((1-methyl-4-((4-(7-methyl-[1,2,4]triazolo[1,5-a]pyridin-6-yl)piperidin-1-yl)sulfonyl)-1H-pyrazol-5-yl)methyl)acetamide]
19 |  | > 10 µM | Cn1cnnc1S(=O)(=O)N1CCC(c2cn3ncnc3cc2C(F)(F)F)CC1 [Compound 520, 6-(1-((4-methyl-4H-1,2,4-triazol-3-yl)sulfonyl)piperidin-4-yl)-7-(trifluoromethyl)-[1,2,4]triazolo[1,5-a]pyridine]
20 | > 10 µM |  | Cc1cc2ncnn2cc1C1CCN(S(=O)(=O)c2ccc3c(c2)C(C)(C)CO3)CC1 [Compound 74, 6-(1-((3,3-dimethyl-2,3-dihydrobenzofuran-5-yl)sulfonyl)piperidin-4-yl)-7-methyl-[1,2,4]triazolo[1,5-a]pyridine]
21 |  | 0.175 µM | Cc1cc2ncnn2cc1C1CCN(S(=O)(=O)c2cnn3cccnc23)CC1 [Compound 442, 7-methyl-6-(1-(pyrazolo[1,5-a]pyrimidin-3-ylsulfonyl)piperidin-4-yl)-[1,2,4]triazolo[1,5-a]pyridine]
22 | 0.029 µM |  | [2H]C([2H])([2H])n1nc(Cl)c(S(=O)(=O)N2CCC(c3cn4ncnc4cc3C)CC2)c1C [Compound 260, 6-(1(3-chloro-5-methyl-1-(methyl-d3-1H-pyrazol-4-yl)sulfonyl)piperidin-4-yl)-7-methyl-[1,2,4]triazolo[1,5-a]pyridine]
23 |  | 1.97 µM | Cc1cc2ncnn2cc1C1CCN(S(=O)(=O)c2cnn(C)c2N2CCOCC2)CC1 [Compound 622, 4-(1-Methyl-4-((4-(7-methyl-[1,2,4]triazolo[1,5-a]pyridin-6-yl)piperidin-1-yl)sulfonyl)-1H-pyrazol-5-yl)morpholine]
24 | 2.6 µM |  | CCc1cc2ncnn2cc1C1CCN(S(=O)(=O)c2cnn(C)c2C(F)(F)F)CC1 [Compound 331, 7-ethyl-6-(1-((1-methyl-5-(trifluoromethyl)-1H-pyrazol-4-yl)sulfonyl)piperidin-4-yl)-[1,2,4]triazolo[1,5-a]pyridine]
25 |  | 0.042 µM | Cc1cc2ncnn2cc1C1CCN(S(=O)(=O)c2cn(C)nn2)CC1 [Compound 572, 7-methyl-6-(1-((1-methyl-1H-1,2,3-triazol-4-yl)sulfonyl)piperidin-4-yl)-[1,2,4]triazolo[1,5-a]pyridine]
26 | > 10 µM |  | Cc1nn(C)cc1S(=O)(=O)N1CCC(c2cn3ncnc3cc2F)CC1 [Compound 108, 6-(1-((1,3-dimethyl-1H-pyrazol-4-yl)sulfonyl)piperidin-4-yl)-7-fluoro-[1,2,4]triazolo[1,5-a]pyridine]
